“Also recorded” adds a separate entry of the source.

For data set [1], the system named is Staphylococcus aureus (ATCC #6538). Briefly: Preservative effectiveness test, single challenge. It counts as cell-based. From the text: (§1) To test for preservative effectiveness, aliquots of vaccine were inoculated with the following organisms:
(§2) Thirty milliliters (ml) of each vaccine formulation with and without Thimerosal or 2-PE at indicated concentrations or saline containing Thimerosal at 0.02% were inoculated in triplicates with a suspension of each test organism to achieve an inoculum density of approximately 10^5 to 10^6 CFU/ml at time 0 (CFU=colony forming units). […] Samples were mixed to ensure even distribution of challenged organisms. Another 30 ml of vaccine in triplicate (with and without preservative) were used as a negative control and spiked with the culture media alone to evaluate the inherent contamination that might be present in the sample or media. Each of the three series of vaccines, and positive and negative controls, was then separately incubated at 20 to 25° C. Aliquots (1 ml) of the challenged samples and controls (or their appropriate serial ten fold dilutions) were enumerated by plate count in duplicates at time 0 and at intervals of 6 hours, 24 hours, 7 days, 14 days and 28 days post-inoculation.
(§3) USP 29 NF 24 Supplement 2 (USP) requires that, after an inoculation of bacterial micro-organism(s), there is at least 1.0 log reduction from the initial calculated count (i.e., at time of inoculation) at 7 days, at least 3.0 log reduction at 14 days from the previous value measured and no increase at 28 days from the previous measured value. For yeast and fungi, the USP requirement is for there to be no increase from the time of inoculation to 7, 14 and 28 days.
(§4) EP requirements are more stringent. EP 5th Edition 5.6 (5.1.3) requirements for parenteral and ophthalmic preparations has two components: Category A and Category B. Category A (EP-A) requires, for bacteria, at least 2.0 log reduction from the initial calculated count at 6 hours after inoculation, at least 3.0 log reduction at 24 hours from the previous measured value, and no recovery at 28 days. Category B (EP-B) requires, for bacteria, at least 1.0 log reduction at 24 hours from the initial calculated count, at least 3.0 log reduction at 7 days from the previous value measured and not more than 0.5 log increase at 28 days from the previous value measured (i.e., no increase). For yeast and fungi, Category A requires at least 2.0 log reduction at 7 days and no increase from the previous value measured at 28 days, and Category B requires at least 1.0 log reduction at 14 days and no increase from the previous value measured at 28 days.
(§5) Plates containing <300 CFU for bacteria or <100 CFU for yeast or mold were used during enumeration. For single challenge studies, arithmetic average count of all surviving micro-organisms in triplicate and on duplicate plates (6 values per time point) plus their diluted samples were measured and normalized as CFU/ml. The results are expressed as mean log10 CFU/ml reduction (compared to time 0). In this case, the count of surviving micro-organisms is evaluated at time 0 as the baseline and compared to incubation time of 6 hours, 24 hours, 7 days, 14 days and 28 days.

In data set [2] the test system is E. coli. Briefly: Preservative effectiveness test, single challenge. It counts as cell-based. The conditions noted are these: Prev(e)nar 13 formulation, 20 to 25° C.
Text: as §1, §2, §3, §4, §5

The subject of data set [3] is Candida albicans (ATCC#10231). Briefly: Preservative effectiveness test, single challenge. It counts as cell-based.
Text: as §1, §2, §3, §4, §5

For data set [4], the system named is Pseudomonas aeruginosa (ATCC #9027). In words: Preservative effectiveness test, single challenge. The conditions noted are these: Prev(e)nar 13 formulation, 20 to 25° C. It counts as cell-based.
Text: as §1, §2, §3, §4, §5

The test system of data set [5] is Aspergillus niger (ATCC #16404). In words: Preservative effectiveness test, single challenge. It counts as cell-based.
Text: as §1, §2, §3, §4, §5

Data set [6] concerns P. aeruginosa, S. aureus, E. coli and B. subtilis. Briefly: Preservative effectiveness test, multi-challenge method, all challenge organisms. It counts as cell-based. The protocol: (§6) To represent the worst reasonable case of contamination that may occur in practice during the repeated use of a multi-dose presentation, WHO requires safety testing with deliberate exposure to multiple contamination events using bacterial strains, Pseudomonas Aeruginosa (“PA”), Staphylococcus Aureus (“SA”), Escherichia coli (“EC”) and Bacillus subtilis (“BA”). Formulations are spiked with 5×10^3 CFU/ml of each organism at times 0, 6 hours, 24 hours, 7 days and 14 days after initial challenge and stored either at 2-8° C. or at 22-24° C. to mimic the potential storage conditions in practice.
(§7) To assess the appropriateness of WHO multi-dose Open Vial Policy of vaccines in multiple immunization sessions for up to maximum of four weeks, experimental design provided by WHO was implemented. In this study, the effectiveness of Thimerosal was evaluated at the concentration that is present in the majority of U.S. licensed vaccines (0.01%), as well as at a higher concentration of 0.02%. To represent the worst reasonable case of contamination that may occur in practice during the repeated use of a multi-dose presentation, and to test WHO requirements, Prev(e)nar 13 vaccine formulations with 0.01 or 0.02% Thimerosal or with 5.0 mg/dose of 2-PE were deliberately exposed to multiple contamination events using WHO recommended bacterial strains, P. aeruginosa, S. aureus, E. coli and B. subtilis. Formulations were spiked with 5×10^3 CFU/ml of each organism at times 0, 6 hours, 24 hours, 7 days and 14 days after initial challenge and stored either at 2-8° C. or at 22-24° C. to mimic the potential storage conditions in practice. Saline formulation containing 0.02% Thimerosal was also used as a control to evaluate the potential impact of Prev(e)nar 13 on the antimicrobial efficacy of Thimerosal in the formulation.

A short description of data set [7]: 2-PE concentration on storage (Reversed-Phase HPLC assay).
Protocol: 2-EP concentration may be measured with a Reversed-Phase HPLC assay, also as described in Example 3. A Reversed-Phase HPLC assay may be performed in the following manner: Samples are vortexed and diluted 1:10 into 5 mM Succinate buffer in saline, centrifuged and diluted again 1:10 into 5 mM succinate buffer in saline (final dilution of the Test Sample is 1:100). The sample is then assayed utilizing the Agilent Eclipse XDB-C18 HPLC column and a linear gradient of water and acetonitrile containing trifluoroacetic acid. The quantification of the preservative is then compared to a standard curve.
2-PE concentration was measured with a Reversed-Phase HPLC assay. Samples were vortexed and diluted 1:10 into 5 mM Succinate buffer in saline, centrifuged and diluted again 1:10 into 5 mM succinate buffer in saline. Final dilution of the Test Sample was 1:100. The assay utilized the Agilent Eclipse XDB-C18 HPLC column and a linear gradient of water and acetonitrile containing trifluoroacetic acid. 2-PE in 13vPnC Multi-Dose Vaccine samples was quantified against a 2-PE standard curve.
Data set [8] relates to E. coli. The protocol:
as §6
as §7, with “Formulations were spiked with 5×10^3 CFU/ml of each organism at times 0, 6 hours, 24 hours, 7 days and 14 days after initial challenge and stored either at 2-8° C. or at 22-24° C. to mimic the potential storage conditions in practice. Saline formulation containing 0.02% Thimerosal was also used as a control to evaluate the potential impact of Prev(e)nar 13 on the antimicrobial efficacy of Thimerosal in the formulation.” left out

The mark [9] stands for this setting: Prev(e)nar 13 formulation, single challenge, 20 to 25° C.
Setting [10] is: 5 mg/dose 2-PE in Prev(e)nar 13, single challenge.
[11] abbreviates: 0.01% Thimerosal in Prev(e)nar 13, single challenge.
The mark [12] stands for this setting: 0.02% Thimerosal in saline (no Prev(e)nar 13) versus vaccine formulation, single challenge.
Setting [13] is: 0.02% Thimerosal in Prev(e)nar 13, 22-24° C. storage.
The mark [14] stands for this setting: 0.02% Thimerosal in saline control formulation without vaccine.

Turning to `OCCOc1ccccc1` [2-PE, 2-phenoxyethanol], the “time to reduction of S. aureus to baseline after inoculation” value in data set [1] (5.0 mg/dose 2-PE in Prev(e)nar 13, single challenge) was determined as 24 h. Besides, in data set [1] (setting [9]), the “EP (EP-B) vaccine safety requirements, S aureus” value was “Fails” and the “USP vaccine safety requirements, S aureus” value is given as “Meets”. Also, in the data set on E. coli [2], the “EP (EP-B) vaccine safety requirements, E. coli” value is reported as “Fails” and the “USP vaccine safety requirements, E. coli” value is given as “Meets”. Besides, in data set [3] (setting [9]), the “EP (EP-B) vaccine safety requirements, C. albicans” value was “Fails” and the “USP vaccine safety requirements, C. albicans” value is given as “Meets”. Further, in data set [4], the “EP (EP-B) vaccine safety requirements, P. aeruginosa” value is given as “Fails” and the “USP vaccine safety requirements, P. aeruginosa” value is listed as “Meets”. Further, in data set [5] (setting [10]), the “effectiveness as a preservative against A. niger compared with Thimerosal” value is on record as “less effective” and the “rate of decline of A. niger contamination compared to Thimerosal” value is reported as “slower”. Moreover, in data set [5] (setting [9]), the “EP (EP-B) vaccine safety requirements, A. niger” value is listed as “Fails” and the “USP vaccine safety requirements, A. niger” value is on record as “Meets”. Besides, the “EP-B criteria under multiple challenge” value in data set [6] (5 mg/dose 2-PE in Prev(e)nar 13) is on record as “met”. In addition, in data set [6] (5 mg/dose 2-PE, multi-challenge method, regardless of storage temperature, all organisms tested), the “preservative effectiveness compared with 0.01% Thimerosal” value was “superior”. Besides, in data set [6] (2-PE at 3.5 to 5 mg/dose), the “rate of antimicrobial effectiveness compared to Thimerosal” value was “much higher”. Besides, the “concentration of 2-PE in the formulation on storage” value in data set [7] (Prev(e)nar 13 formulation stored at 2-8° C. (two and a half years)) is listed as “similarly stable; also recorded: did not change”. Also, in data set [7] (Prev(e)nar 13 formulation stored at 37° C. (a month)), the “concentration of 2-PE in the formulation on storage” value is “similarly stable; also recorded: did not change”.

As for `C[CH2][Hg][S]c1ccccc1C(=O)[O-].[Na+]` [Thimerosal], the “inhibition of S. aureus relative to P. aeruginosa and A. niger” value in data set [1] (setting [11]) is listed as “weaker”. Also, the “growth inhibitory effectiveness against S. aureus” value in data set [1] (setting [12]) is recorded as “slightly improved”. For the same molecule, in data set [1] (Thimerosal in Prev(e)nar 13, single challenge), the “decline of S. aureus” value is on record as “slow decline”. For the same molecule, the “inhibition of C. albicans relative to P. aeruginosa and A. niger” value in data set [3] (setting [11]) is given as “weaker”. Besides, the “growth inhibitory effectiveness against C. albicans” value in data set [3] (setting [12]) was “slightly improved”. In data set [3] (0.02% Thimerosal versus 0.01% in Prev(e)nar 13, single challenge), the “reduction of contamination levels, C. albicans” value is given as “more pronounced”. The “antibacterial effectiveness by organism” value in data set [6] (0.01% Thimerosal in Prev(e)nar 13, multiple challenges) is “highest on B. subtilis followed by P. aeruginosa”. Further, in data set [6] (setting [13]), the “EP requirements EP-A applied to multi-challenge studies” value is reported as “did not meet” and the “EP requirements EP-B applied to multi-challenge studies” value is “did not meet”. For the same molecule, in data set [6] (setting [14]), the “acceptance criteria of EP-A when multiply challenged” value is “did not meet” and the “acceptance criteria of EP-B when multiply challenged” value is “did not meet”. In addition, the “preservative effectiveness, concentration dependence” value in data set [6] (Thimerosal 0.02% versus 0.01%, multiple challenges) was “more effective”. The rate of inactivation entry in data set [6] (Thimerosal in Prev(e)nar 13, particularly against S. aureus and E. coli) is reported as “slow”. Besides, the “EP-B criteria under multiple challenge” value in data set [6] (Thimerosal, any version tested) is on record as “no version of Thimerosal was able to do so”. In addition, the “preservative effectiveness, temperature dependence” value in data set [6] (Thimerosal, storage at 22-24° C. versus 2-8° C., multiple challenges) is listed as “more effective”. Further, the “reduction of E. coli” value with E. coli [8] (0.01% Thimerosal in Prev(e)nar 13, multiple challenges, particularly at 2-8° C.) was “slow”. Besides, the “rate of decay of E. coli in saline formulation versus vaccine formulation” value with E. coli [8] (0.02% Thimerosal, multiple challenges) was “more pronounced”.
